Experimental data from patent US11312702B2, “Substituted quinoline-8-carbonitrile derivatives having androgen receptor degradation activity and uses thereof” (ACCUTAR BIOTECHNOLOGY INC., priority 2019, dated 2022).
Changes are numbered by the printed parent chain.

How the values were obtained:
Assay type in all cases: cell-based
[1] = target: T1, androgen receptor (AR) (Homo sapiens, UniProt P10275, T878A); assay: AR degradation activity in LNCAP cells (Western blot); conditions: LNCAP cell line, 24 hours after administration; DC50 = concentration for 50% target protein degradation
T1 construct: endogenous in cells; host or cells: LNCAP
T1 sequence (P10275 1-920 T878A): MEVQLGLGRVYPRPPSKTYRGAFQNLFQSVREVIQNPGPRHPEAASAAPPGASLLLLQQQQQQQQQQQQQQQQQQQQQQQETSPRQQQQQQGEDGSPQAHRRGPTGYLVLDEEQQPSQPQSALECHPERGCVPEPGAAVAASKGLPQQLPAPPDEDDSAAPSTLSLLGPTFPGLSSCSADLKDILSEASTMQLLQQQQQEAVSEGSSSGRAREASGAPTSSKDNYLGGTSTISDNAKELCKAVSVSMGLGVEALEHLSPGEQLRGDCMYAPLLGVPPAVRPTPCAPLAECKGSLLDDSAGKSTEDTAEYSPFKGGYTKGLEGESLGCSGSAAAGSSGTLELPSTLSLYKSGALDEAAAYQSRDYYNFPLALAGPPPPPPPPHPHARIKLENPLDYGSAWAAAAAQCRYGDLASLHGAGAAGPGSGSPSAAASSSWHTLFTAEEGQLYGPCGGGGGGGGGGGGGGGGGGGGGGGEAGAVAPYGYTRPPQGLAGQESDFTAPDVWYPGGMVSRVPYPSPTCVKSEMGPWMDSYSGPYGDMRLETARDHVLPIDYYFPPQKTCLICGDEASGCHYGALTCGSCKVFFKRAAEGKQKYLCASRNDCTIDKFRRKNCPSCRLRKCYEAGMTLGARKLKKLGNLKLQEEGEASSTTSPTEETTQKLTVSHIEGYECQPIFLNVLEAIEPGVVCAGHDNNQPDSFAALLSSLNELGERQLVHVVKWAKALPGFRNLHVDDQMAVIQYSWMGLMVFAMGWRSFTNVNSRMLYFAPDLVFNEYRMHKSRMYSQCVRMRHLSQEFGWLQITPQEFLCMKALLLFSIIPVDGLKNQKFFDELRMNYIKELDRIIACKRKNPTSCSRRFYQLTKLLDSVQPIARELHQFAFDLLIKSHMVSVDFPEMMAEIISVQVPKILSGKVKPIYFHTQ
Experimental: (§1) LNCAP, VCAP and 22Rv1 cells were plated in 24-well plates at 1.5×10E5 cells/well in the RPMI growth medium containing 10% FBS and 1% Penicillin Streptomycin, and then incubated at 37° C. overnight. The following day, the test compound was administered to the cells by using 1000× compound stock solution prepared in DMSO at various concentrations. After administration of the compound, the cells were then incubated at 37° C. for 24 hours. Upon completion, the cells were washed with PBS and protein was collected in Laemmli sample buffer (1×; VWR International). Proteins in cell lysate were separated by SDS-PAGE and transferred to Odyssey nitrocellulose membranes (Licor) with iblot® dry blotting transfer system (ThermoFisher). Nonspecific binding was blocked by incubating membranes with Intercept Blocking Buffer (Licor) for 1 hour at room temperature with gentle shaking. The membranes were then incubated overnight at 4° C. with Primary antibodies rabbit anti-AR (1:1,000, Cell Signaling, 5153) and mouse anti-GAPDH (1:5,000, Santa Cruz Biotechnology, sc-47724) diluted in Intercept Blocking Buffer containing 0.1% Tween 20. After washing 3 times with TBS-T, the membranes were incubated with IRDye® […] goat anti-mouse IgG (1:20,000, Licor) or IRDye®8000W goat anti-rabbit IgG (1:20,000, Licor) for 1 hour. After TBS-T washes, membranes were rinsed in TBS and scanned on Odyssey® CLx Imaging System (Licor). The bands were quantified using Image Studio™ Software (Licor).
(§2) Table 4 summarizes the androgen receptor (AR) degradative activity and cell growth inhibition of exemplary compounds in (a) LNCAP, VCAP, and 22Rv1 cell lines 24 hours after administration of the compound; (b) RAMOS cell line 3 days after administration of the compound; and (c) VCAP cell line 6 days after administration of the compound. DC50: compound concentration needed for 50% target protein degradation.

[2] = target: T2, androgen receptor (AR) (Homo sapiens, UniProt P10275); assay: AR degradation activity in VCAP cells (Western blot); conditions: VCAP cell line, 24 hours after administration; DC50 = concentration for 50% target protein degradation
T2 construct: endogenous in cells; host or cells: VCAP
T2 sequence (P10275 1-920): T1 sequence (P10275 1-920 T878A) with A878T
Experimental: as §1, §2

[3] = tested on: VCAP cells; assay: Cell growth inhibition for VCAP cells (CellTiter-Glo); conditions: Homo sapiens, 144 h; VCAP cell line, 6 days after administration, 0.1 nM R1881, charcoal-stripped FBS
Experimental: VCAP cells (ATCC) were seeded in 96-well plates at 3000 cell/well in 80 μl of DMEM growth medium containing 10% charcoal-stripped FBS (CSS) and 1% Penicillin/Streptomycin. Cells were incubated at 37° C. overnight. The following day, the test compound was administered to the cells by using 10× compound stock solution prepared in growth medium at various concentrations. Four hours later, 0.1 nM R1881 (Sigma) was administered to the cells by using 10× compound stock solution prepared in growth medium. 0.1% DMSO with or without 0.1 nM R1881 was administered as control. Cells were then incubated at 37° C. for 6 days. Before CelTiter-Glo assay, the plates were equilibrated at room temperature for approximately 10 minutes. 100 ul of CellTiter-Glo® Reagent (Promega) was added to each well. The plates were then incubated at room temperature for 10 minutes and luminescence was recorded by EnSpire plate reader (PerkinElmer).
as §2

[4] = tested on: RAMOS cells; assay: Cell growth inhibition for Ramos cells (CellTiter-Glo); conditions: Homo sapiens, 72 h; RAMOS cell line, 3 days after administration
Experimental: RAMOS cells (ATCC) were seeded in 96-well plates at 16,000 cell/well in 90 μl of RPMI growth medium containing 10% Heat-Inactivated Fetal Bovine Serum and 1% Penicillin/Streptomycin. The test compound was administered to the cells by using 10× compound stock solution prepared in growth medium at various concentrations. After administration of the compound, cells were then incubated at 37° C. for 3 days. Before CellTiter-Glo assay, the plates were equilibrated at room temperature for approximately 10 minutes. 100 ul of CellTiter-Glo® Reagent (Promega) was added to each well. The plates were then incubated at room temperature for 10 minutes and luminescence was recorded by EnSpire plate reader (PerkinElmer).
as §2

[5] = tested on: androgen receptor (AR); assay: AR degradation activity in 22Rv1 cells (Western blot); conditions: 22Rv1 cell line, 24 hours after administration; DC50 = concentration for 50% target protein degradation
Experimental: as §1, §2

DC50 [1] [nM] | DC50 [2] [nM] | GI50 [3] [nM] | GI50 [4] [nM] | DC50 [5] [nM] | SMILES
0.7 | 0.7 | 47.6 | > 3000 |  | CC1(C)C(NC(=O)c2ccc(N3CCC(CN4CCN(c5ccc6c(c5)C(=O)N(C5CCC(=O)NC5=O)C6=O)CC4)CC3)nc2)C(C)(C)C1Oc1ccc(C#N)c2ncccc12 (stereo not drawn) [Compound 2-13, N-(1,3-trans)-3-((8-cyanoquinolin-5-yl)oxy)-2,2,4,4-tetramethylcyclobutyl)-6-(4-((4-(2-(2,6-dioxopiperidin-3-yl)-1,3-dioxoisoindolin-5-yl)piperazin-1-yl)methyl)piperidin-1-yl)nicotinamide]
0.4 | 0.4 |  |  |  | CC1(C)C(NC(=O)c2cnc(N3CCC(CN4CCN(c5ccc6c(c5)C(=O)N(C5CCC(=O)NC5=O)C6=O)CC4)CC3)nc2)C(C)(C)C1Oc1ccc(C#N)c2ncccc12 (stereo not drawn) [Compound 2-18, N-(1,3-trans)-3-((8-cyanoquinolin-5-yl)oxy)-2,2,4,4-tetramethylcyclobutyl)-2-(4-((4-(2-(2,6-dioxopiperidin-3-yl)-1,3-dioxoisoindolin-5-yl)piperazin-1-yl)methyl)piperidin-1-yl)pyrimidine-5-carboxamide]
0.5 | 1 |  |  |  | CC1(C)[C@H](NC(=O)c2ccc(N3CCC(CN4CCN(c5ccc6c(c5)C(=O)N(C5CCC(=O)NC5=O)C6=O)CC4)CC3)nn2)C(C)(C)[C@H]1Oc1ccc(C#N)c2ncccc12 (some centres unmarked) [Compound 2-19]
2.2 | 1.2 | 18 | > 3000 | 0.9 | CC1(C)C(NC(=O)c2ccc(N3CCC(CN4CCN(c5ccc6c(c5)C(=O)N(C5CCC(=O)NC5=O)C6=O)CC4)CC3)cc2)C(C)(C)C1Oc1ccc(C#N)c2ncccc12 (stereo not drawn) [Compound 2-21, N-(1,3-trans)-3-((8-cyanoquinolin-5-yl)oxy)-2,2,4,4-tetramethylcyclobutyl)-4-(4-((4-(2-(2,6-dioxopiperidin-3-yl)-1,3-dioxoisoindolin-5-yl)piperazin-1-yl)methyl)piperidin-1-yl)benzamide]
0.1 |  | 2.1 | > 3000 | 0.13 | CC1(C)C(NC(=O)c2ccc(N3CCC(CN4CCN(c5ccc6c(c5)CN([C@H]5CCC(=O)NC5=O)C6=O)CC4)CC3)nc2)C(C)(C)C1Oc1ccc(C#N)c2ncccc12 (some centres unmarked) [Compound 2-29]
0.1 | 0.3 | 5.7 | > 3000 | 0.25 | CC1(C)C(NC(=O)c2ccc(N3CCC(CN4CCN(c5ccc6c(c5)CN([C@H]5CCC(=O)NC5=O)C6=O)CC4)CC3)c(F)c2)C(C)(C)C1Oc1ccc(C#N)c2ncccc12 (some centres unmarked) [Compound 2-32]
2 | 1.8 | 31.2 | > 3000 |  | CC1(C)C(NC(=O)c2ccc(N3CCC(CCN4CCN(c5ccc6c(c5)C(=O)N(C5CCC(=O)NC5=O)C6=O)CC4)CC3)cc2)C(C)(C)C1Oc1ccc(C#N)c2ncccc12 (stereo not drawn) [Compound 2-43, N-(1,3-trans)-3-((8-cyanoquinolin-5-yl)oxy)-2,2,4,4-tetramethylcyclobutyl)-4-(4-(2-(4-(2-(2,6-dioxopiperidin-3-yl)-1,3-dioxoisoindolin-5-yl)piperazin-1-yl)ethyl)piperidin-1-yl)benzamide]
0.4 | 0.4 | 8.2 | > 3000 | 0.4 | CC1(C)[C@H](NC(=O)c2ccc(N3CCC(CN4CCN(c5ccc6c(c5)CN([C@H]5CCC(=O)NC5=O)C6=O)CC4)CC3)cc2)C(C)(C)[C@H]1Oc1ccc(C#N)c2ncccc12 [Compound 2-49, N-((1,3-trans)-3-((8-cyanoquinolin-5-yl)oxy)-2,2,4,4-tetramethylcyclobutyl)-4-(4-((4-(2-((S)-2,6-dioxopiperidin-3-yl)-1-oxoisoindolin-5-yl)piperazin-1-yl)methyl)piperidin-1-yl)benzamide]

SMILES | DC50 [1] [nM] | DC50 [2] [nM] | GI50 [3] [nM] | GI50 [4] [nM] | DC50 [5] [nM]
CC1(C)[C@H](NC(=O)c2ccc(N3CCC(CN4CCN(c5ccc6c(c5)C(=O)N(C5CCC(=O)NC5=O)C6=O)CC4)CC3)c(F)c2)C(C)(C)[C@H]1Oc1ccc(C#N)c2ncccc12 (some centres unmarked) [Compound 2-22] | 1 | 1.7 | 8 |  | 2.8
